# Test results as given in article PMC7151078, “A Novel NMDA Receptor Antagonist Protects against Cognitive Decline Presented by Senescent Mice” (Pharmaceutics, 2020).
# Columns and labels:
# SAMR1 and SAMP8 mice [1] = assay: proBDNF and mBDNF protein levels in the hippocampus (ELISA); format: in vivo, mouse
# Protocol: Male SAMR1 and SAMP8 mice (n = 41) with 20-weeks-old were used to carry out cognitive and molecular analysis. The animals were randomly divided into four groups: SAMR1 control (SR1 Ct) group (n = 11), SAMP8 control (SP8 Ct) group (n = 8), SAMR1 treated with RL-208 (SR1 RL-208 (5 mg/Kg)) group (n = 10) and SAMP8 treated with RL-208 (SP8 RL-208 (5 mg/Kg)) group (n = 12). Animals had free access to food and water, under standard temperature conditions (22±2 °C) and 12h:12h light-dark cycles (300 lux/0 lux). RL-208, (3,4,8,9-tetramethyltetracyclo[4.4.0.0^3,9.0^4,8]dec-1-yl)-methylamine hydrochloride, (5 mg/kg/day) was administered through drinking water for four weeks before starting the cognitive test. RL-208 was administered up to euthanasia (Figure 1A). Water consumption was controlled each week for each cage and strain. Afterwards, RL-208 concentration was adjusted accordingly to reach the optimal dose for each cage. Three days after the behavioural and cognitive tests, mice were euthanized by cervical dislocation. Brains were immediately removed from the skull. The hippocampus and cortex were then isolated and frozen in powdered dry ice. They were maintained at −80 °C for further use. Tissue samples were homogenized in lysis buffer containing phosphatase and protease inhibitors (Cocktail II, Sigma). Total protein levels were obtained, and protein concentration was determined by the method of Bradford. The hippocampal determination of pro-Brain-derived neurotrophic factor (proBDNF) and mature brain-derived neurotrophic factor (mBDNF) protein levels was performed using the enzyme-linked immunosorbent assay (ELISA) kit (Biosensis) according to the manufacturer’s instructions.
# SAMR1 and SAMP8 mice [2] = assay: Novel object recognition test (NORT); format: in vivo, mouse; conditions: 5 mg/kg/day
# Protocol: Male SAMR1 and SAMP8 mice (n = 41) with 20-weeks-old were used to carry out cognitive and molecular analysis. The animals were randomly divided into four groups: SAMR1 control (SR1 Ct) group (n = 11), SAMP8 control (SP8 Ct) group (n = 8), SAMR1 treated with RL-208 (SR1 RL-208 (5 mg/Kg)) group (n = 10) and SAMP8 treated with RL-208 (SP8 RL-208 (5 mg/Kg)) group (n = 12). Animals had free access to food and water, under standard temperature conditions (22±2 °C) and 12h:12h light-dark cycles (300 lux/0 lux). RL-208, (3,4,8,9-tetramethyltetracyclo[4.4.0.0^3,9.0^4,8]dec-1-yl)-methylamine hydrochloride, (5 mg/kg/day) was administered through drinking water for four weeks before starting the cognitive test. RL-208 was administered up to euthanasia (Figure 1A). Water consumption was controlled each week for each cage and strain. Afterwards, RL-208 concentration was adjusted accordingly to reach the optimal dose for each cage. The novel object recognition test (NORT) allows evaluating short- and long-term recognition memory involving cortical areas and the hippocampus. The experimental apparatus used for this test was a 90º, two-arm, 25-cm-long, 20-cm-high, and a 5-cm-wide black maze of black polyvinyl chloride (Figure 1D). The walls could be removed for easy cleaning with 70% ethanol to eliminate olfactory cues, and light intensity in mid-field was 30 lux. The objects to be discriminated were made of plastic and chosen not to frighten mice and without any part likely to be bitten. Before performing the test, the mice were individually habituated to the apparatus for 10 min during 3 consecutive days. On day four the next day, the animals were allowed to explore freely a 10 min acquisition trial (First trial), during which they were placed in the maze in the presence of two identical novel objects (A+A’ or B+B’) at the end of each arm. The mouse was then removed from the apparatus and returned to its home cage. A 10 min retention trial (Second trial) was carried out two hours later. […] The time that mice explored the novel object (TN) and time that mice explored the old object (TO) were measured from the video recordings from each trial session Exploration of an object was defined as pointing the nose towards the object at a distance ≤2 cms and/or touching it with the nose. […] To avoid object preference biases objects A and B were counterbalanced so that one-half of the animals in each experimental group were first exposed to object A and then to object B, whereas the other half first saw object B and then object A. To evaluate the cognitive performance, the discrimination index (DI) was calculated, which is defined as (TN-TO)/(TN+TO).
# [3] = Microsomal stability in mice microsomes; format: in vitro ADME; conditions: 37 °C, 0-60 min
# Protocol: The human, rat, and mice microsomes employed were purchased from Tebu-Xenotech. The compound was incubated at 37 °C with the microsomes in a 50 mM phosphate buffer (pH = 7.4) containing 30 mM MgCl2, 10 mM NADP, 100 mM glucose-6-phosphate and 20 U/mL glucose-6-phosphate-dehydrogenase. Samples (75 µL) were taken from each well at 0, 10, 20, 40, and 60 min and transferred to a plate containing 4 °C 75 µL acetonitrile. Then, 30 µL of 0.5% formic acid in water was added to improve the chromatographic conditions. The plate was centrifuged (46,000× g, 30 min) and supernatants were taken and analyzed in a UPLC-MS/MS (Xevo-TQD, Waters) by employing a BEH C18 column and an isocratic gradient of 0.1% formic acid in water: 0.1% formic acid acetonitrile (60:40) for 5 minutes and a flow of 0.25 mL/min. The metabolic stability of the compounds was calculated from the logarithm of remaining compounds at each time point studied.
smiles,measurement,setting,value
"CC12CC3CC1(C)C1(C)CC3(CN)CC21C.Cl [RL-208, (3,4,8,9-tetramethyltetracyclo [4.4.0.0^3,9.0^4,8]dec-1-yl)methylamine hydrochloride]",mature BDNF protein levels,SAMR1 and SAMP8 mice [1]; RL-208 treated mice vs control groups,significant augment
same,proBDNF protein levels,SAMR1 and SAMP8 mice [1]; SP8 treated vs control,significant reduction
same,proBDNF protein levels (differences),SAMR1 and SAMP8 mice [1]; SR1 strain,not significant
same,NORT short-term recognition memory (DI),"SAMR1 and SAMP8 mice [2]; SP8 RL-208 vs SP8 Ct, 2 h retention",significant gain
same,NORT long-term recognition memory (DI),"SAMR1 and SAMP8 mice [2]; SP8 RL-208 vs SP8 Ct, 24 h retention",significant gain
same,NORT long-term DI,SAMR1 and SAMP8 mice [2]; between SR1 groups,no significant changes
same,NORT short-term DI,SAMR1 and SAMP8 mice [2]; between SR1 groups,no significant changes
same,microsomal stability,[3],good
